By IC50 is commonly meant the midpoint of a concentration-inhibition curve.

Chain of human GPR17 short isoform (Q13304 29-367): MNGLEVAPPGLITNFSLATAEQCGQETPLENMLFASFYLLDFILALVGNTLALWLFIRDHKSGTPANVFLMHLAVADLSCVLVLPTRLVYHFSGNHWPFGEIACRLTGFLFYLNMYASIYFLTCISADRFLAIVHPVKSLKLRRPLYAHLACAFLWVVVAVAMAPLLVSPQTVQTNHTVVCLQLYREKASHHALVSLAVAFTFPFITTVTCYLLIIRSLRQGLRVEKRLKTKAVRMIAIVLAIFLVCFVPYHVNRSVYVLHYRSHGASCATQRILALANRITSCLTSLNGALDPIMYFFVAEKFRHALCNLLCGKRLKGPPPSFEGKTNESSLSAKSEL

The target of this experiment is human GPR17 short isoform (Homo sapiens, UniProt Q13304). Kind of experiment: GPR17 cAMP assay (TR-FRET cAMP quantification, antagonist mode). The format is cell-based. As to conditions: CHO-K1 cells stably expressing human GPR17 short isoform; EC80 of agonist MDL29,951; forskolin 15µM; IBMX 0.5mM; 30 minutes at room temperature; read-out: hGPR17 cAMP IC50. On the procedure:
GPR17 cAMP Assay Protocol:
CHO-K1 cells stably expressing vector containing untagged human GPR17 short isoform (Roche) were cultured at 37°C / 5% CO2 in DMEM (Dulbecco's Modified Eagle Medium):F-12 (1:1) supplemented with 10% foetal bovine serum and 400 µg/ml Geneticin.
Changes in intracellular cyclic adenosine monophosphate (cAMP) levels were quantified using the Nano-TRF Detection Assay kit (Roche Diagnostics, Cat. No. 05214386001). This assay allows for direct cAMP quantification in a homogeneous solution. cAMP is detected based on time-resolved fluorescence energy transfer (TR-FRET) and competitive binding of ruthenylated cAMP and endogenous cAMP to an anti-cAMP monoclonal antibody labeled with AlexaFluor-700. The Ruthenium complex serves as the FRET donor and transfers energy to AlexaFluor-700. The FRET signal is inversely proportional to the cAMP concentration.
CHO-GPR17S cells were detached with Accutase and resuspended in assay buffer consisting of Hank's Balanced Salt Solution (HBSS), 10mM HEPES (4-(2-hydroxyethyl) piperazine-1-ethanesulfonic acid solution) and 0.1% bovine serum albumin (pH 7.4). The cells were seeded in black 384-well plates (Corning) at a density of 10'000 cells / 20µl assay buffer until the addition of compounds.
Test antagonist compounds were serially diluted in dimethyl sulfoxide (DMSO) and spotted in 384-well plates. The compounds were then diluted in HBSS buffer supplemented with an EC80 concentration of MDL29,951 (3-(2-Carboxy-4,6-dichloroindol-3-yl)propionic acid) (GPR17 agonist) plus 3-Isobutyl-1-methylxanthine (IBMX) (0.5mM final concentration) and added to the cells at room temperature. Forskolin (15µM final concentration) was added 5 minutes after the test compounds and the cells were incubated at room temperature for 30 minutes. The assay was stopped by adding cAMP detection mix (containing detergents for cell lysis) for 90 minutes at room temperature.
Cellular cAMP was measured using a Paradigm reader (Molecular Devices). The raw data was used to calculate the FRET signal based on the assay's P-factor as per cAMP kit instructions. The data was normalized to the maximal activity of a reference antagonist and dose response curves were fitted to the percent activity of the test compounds using a sigmoidal dose response model (Genedata Screener).
Results in the hGPR17 cAMP assay are provided for compounds of formula I in Table 1 Table 1: […]
In the case of `COc1nc(NS(=O)(=O)c2c[nH]c3c(-c4cccc(C)n4)c(Cl)ccc23)nc(OC)c1OCC(F)F` [Example 92, 6-chloro-N-[5-(2,2-difluoroethoxy)-4,6-dimethoxy-pyrimidin-2-yl]-7-(6-methyl-2-pyridyl)-1H-indole-3-sulfonamide], the IC50 was 0.028 µM.

For the compound `COc1nc(NS(=O)(=O)c2c[nH]c3c(-c4ccccc4)c(Cl)ccc23)nc(OC)c1OCC(F)F` [Example 70, 6-chloro-N-[5-(2,2-difluoroethoxy)-4,6-dimethoxy-pyrimidin-2-yl]-7-phenyl-1H-indole-3-sulfonamide], the IC50 is 0.102 µM.

As to `COc1nc(NS(=O)(=O)c2c[nH]c3c(-c4ncccn4)c(Br)ccc23)nc(OC)c1OCCF` [Example 37, 6-bromo-N-[5-(2-fluoroethoxy)-4,6-dimethoxy-pyrimidin-2-yl]-7-(2-pyrimidyl)-1H-indole-3-sulfonamide], the IC50 was determined as 0.067 µM.

`COc1nc(NS(=O)(=O)c2c[nH]c3c(-c4cccnn4)c(C)ccc23)nc(OC)c1OCC(F)F` [Example 57, N-[5-(2,2-difluoroethoxy)-4,6-dimethoxy-pyrimidin-2-yl]-6-methyl-7-pyridazin-3-yl-1H-indole-3-sulfonamide]: the IC50 amounted to 0.109 µM.

`COc1nc(NS(=O)(=O)c2c[nH]c3c(-c4ncccc4C)c(Cl)ccc23)nc(OC)c1CC(F)F` [Example 102, 6-chloro-N-[5-(2,2-difluoroethyl)-4,6-dimethoxy-pyrimidin-2-yl]-7-(3-methyl-2-pyridyl)-1H-indole-3-sulfonamide]: the half-maximal inhibitory concentration (IC50) was found to be 0.042 µM.

With `COc1nc(NS(=O)(=O)c2c[nH]c3c(-c4ncccn4)c(C(F)F)ccc23)nc(OC)c1OCC(F)F` [Example 49, N-[5-(2,2-difluoroethoxy)-4,6-dimethoxy-pyrimidin-2-yl]-6-(difluoromethyl)-7-(2-pyrimidyl)-1H-indole-3-sulfonamide], the IC50 came out at 0.301 µM.

As to `COc1nc(NS(=O)(=O)c2c[nH]c3c(-c4nnccc4C)cccc23)nc(OC)c1OCC(F)F` [Example 13, N-[5-(2,2-difluoroethoxy)-4,6-dimethoxy-pyrimidin-2-yl]-7-(4-methylpyridazin-3-yl)-1H-indole-3-sulfonamide], the IC50 is 0.057 µM.

Consider `COc1nc(NS(=O)(=O)c2c[nH]c3c(-c4nccnc4C)cccc23)nc(OC)c1CC(F)F` [Example 53, N-[5-(2,2-difluoroethyl)-4,6-dimethoxy-pyrimidin-2-yl]-7-(3-methylpyrazin-2-yl)-1H-indole-3-sulfonamide], for which the IC50 was found to be 0.043 µM.

In the case of `COc1nc(NS(=O)(=O)c2c[nH]c3c(-c4cncc(C)n4)c(Cl)ccc23)nc(OC)c1OC(F)F` [Example 87, 6-chloro-N-[5-(difluoromethoxy)-4,6-dimethoxy-pyrimidin-2-yl]-7-(6-methylpyrazin-2-yl)-1H-indole-3-sulfonamide], the 50% inhibitory concentration (IC50) came to 0.031 µM.

For the compound `COc1nc(NS(=O)(=O)c2c[nH]c3c(-c4cnccn4)c(F)ccc23)nc(OC)c1OCCF` [Example 32, 6-fluoro-N-[5-(2-fluoroethoxy)-4,6-dimethoxy-pyrimidin-2-yl]-7-pyrazin-2-yl-1H-indole-3-sulfonamide], the half-inhibitory concentration (IC50) was determined as 0.129 µM.

In the case of `COc1nc(NS(=O)(=O)c2c[nH]c3c(-c4cnoc4)c(Cl)ccc23)nc(OC)c1OCC(F)F` [Example 118, 6-chloro-N-[5-(2,2-difluoroethoxy)-4,6-dimethoxy-pyrimidin-2-yl]-7-isoxazol-4-yl-1H-indole-3-sulfonamide], the IC50 was determined as 0.063 µM.

Regarding `COc1nc(NS(=O)(=O)c2c[nH]c3c(-c4cnccn4)c(F)ccc23)nc(OC)c1OC(F)F` [Example 34, N-[5-(difluoromethoxy)-4,6-dimethoxy-pyrimidin-2-yl]-6-fluoro-7-pyrazin-2-yl-1H-indole-3-sulfonamide], the IC50 came out at 0.407 µM.

`COc1nc(NS(=O)(=O)c2c[nH]c3c(-c4nccnc4F)c(Cl)ccc23)nc(OC)c1OCC(F)F` [Example 98, 6-chloro-N-[5-(2,2-difluoroethoxy)-4,6-dimethoxy-pyrimidin-2-yl]-7-(3-fluoropyrazin-2-yl)-1H-indole-3-sulfonamide]: the IC50 stood at 0.035 µM.

Consider `COc1nc(NS(=O)(=O)c2c[nH]c3c(-c4cccnn4)c(Cl)ccc23)nc(OC)c1CC(F)F` [Example 6, 6-chloro-N-[5-(2,2-difluoroethyl)-4,6-dimethoxy-pyrimidin-2-yl]-7-pyridazin-3-yl-1H-indole-3-sulfonamide], for which the IC50 is 0.042 µM.

Turning to `COc1nc(NS(=O)(=O)c2c[nH]c3c(-c4cnn(C)c4)c(Br)ccc23)nc(OC)c1OCC(F)F` [Example 69, 6-bromo-N-[5-(2,2-difluoroethoxy)-4,6-dimethoxy-pyrimidin-2-yl]-7-(1-methylpyrazol-4-yl)-1H-indole-3-sulfonamide], the IC50 worked out at 0.056 µM.

Regarding `COc1nc(NS(=O)(=O)c2c[nH]c3c(-c4nccnc4C)c(Cl)ccc23)nc(OC)c1OCC(F)F` [Example 73, 6-chloro-N-[5-(2,2-difluoroethoxy)-4,6-dimethoxy-pyrimidin-2-yl]-7-(3-methylpyrazin-2-yl)-1H-indole-3-sulfonamide], the IC50 worked out at 0.037 µM.

In the case of `COc1nc(NS(=O)(=O)c2c[nH]c3c(-c4cn(C)nn4)c(Cl)ccc23)nc(OC)c1OCC(F)F` [Example 101, 6-chloro-N-[5-(2,2-difluoroethoxy)-4,6-dimethoxy-pyrimidin-2-yl]-7-(1-methyltriazol-4-yl)-1H-indole-3-sulfonamide], the IC50 came to 0.043 µM.

In the case of `COc1nc(NS(=O)(=O)c2c[nH]c3c(-c4ncccn4)c(Br)ccc23)nc(OC)c1OCC(F)F` [Example 38, 6-bromo-N-[5-(2,2-difluoroethoxy)-4,6-dimethoxy-pyrimidin-2-yl]-7-(2-pyrimidyl)-1H-indole-3-sulfonamide], the IC50 came to 0.054 µM.

With `COc1nc(NS(=O)(=O)c2c[nH]c3c(-c4cnn(C)c4)c(Cl)ccc23)nc(OC)c1OCC(F)F` [Example 111, 6-chloro-N-[5-(2,2-difluoroethoxy)-4,6-dimethoxy-pyrimidin-2-yl]-7-(1-methylpyrazol-4-yl)-1H-indole-3-sulfonamide], the IC50 amounted to 0.053 µM.

`COc1nc(NS(=O)(=O)c2c[nH]c3c(-c4cocn4)c(Cl)ccc23)nc(OC)c1OCC(F)F` [Example 14, 6-chloro-N-[5-(2,2-difluoroethoxy)-4,6-dimethoxy-pyrimidin-2-yl]-7-oxazol-4-yl-1H-indole-3-sulfonamide]: the IC50 was determined as 0.032 µM.

For `COc1nc(NS(=O)(=O)c2c[nH]c3c(-c4ncccn4)c(C)ccc23)nc(OC)c1OCCF` [Example 56, N-[5-(2-fluoroethoxy)-4,6-dimethoxy-pyrimidin-2-yl]-6-methyl-7-(2-pyrimidyl)-1H-indole-3-sulfonamide], the IC50 is 0.129 µM.

Turning to `COc1nc(NS(=O)(=O)c2c[nH]c3c(-c4ncccn4)c(Cl)ccc23)nc(OC)c1Br` [Example 75, N-(5-bromo-4,6-dimethoxy-pyrimidin-2-yl)-6-chloro-7-(2-pyrimidyl)-1H-indole-3-sulfonamide], the IC50 was 0.135 µM.

With `COc1nc(NS(=O)(=O)c2c[nH]c3c(-c4cscn4)c(Cl)ccc23)nc(OC)c1OC(F)F` [Example 120, 6-chloro-N-[5-(difluoromethoxy)-4,6-dimethoxy-pyrimidin-2-yl]-7-thiazol-4-yl-1H-indole-3-sulfonamide], the IC50 was determined as 0.149 µM.

Turning to `COc1nc(NS(=O)(=O)c2c[nH]c3c(-c4cnn(C)c4)c(Cl)ccc23)nc(OC)c1CC(F)F` [Example 114, 6-chloro-N-[5-(2,2-difluoroethyl)-4,6-dimethoxy-pyrimidin-2-yl]-7-(1-methylpyrazol-4-yl)-1H-indole-3-sulfonamide], the IC50 was determined as 0.055 µM.

In the case of `COc1nc(NS(=O)(=O)c2c[nH]c3c(-c4cnn(C)n4)c(Cl)ccc23)nc(OC)c1CC(F)F` [Example 108, 6-chloro-N-[5-(2,2-difluoroethyl)-4,6-dimethoxy-pyrimidin-2-yl]-7-(2-methyltriazol-4-yl)-1H-indole-3-sulfonamide], the IC50 was 0.032 µM.

For the compound `COc1nc(NS(=O)(=O)c2c[nH]c3c(-c4ccccc4)c(Cl)ccc23)nc(OC)c1CC(F)F` [Example 71, 6-chloro-N-[5-(2,2-difluoroethyl)-4,6-dimethoxy-pyrimidin-2-yl]-7-phenyl-1H-indole-3-sulfonamide], the half-inhibitory concentration (IC50) is 0.099 µM.

Take `COc1nc(NS(=O)(=O)c2c[nH]c3c(-c4cnc(C)cn4)c(Cl)ccc23)nc(OC)c1OC(F)F` [Example 83, 6-chloro-N-[5-(difluoromethoxy)-4,6-dimethoxy-pyrimidin-2-yl]-7-(5-methylpyrazin-2-yl)-1H-indole-3-sulfonamide]: the IC50 worked out at 0.097 µM.

The values above are taken from patent publication EP4562003B1, “NOVEL 7-SUBSTITUTED INDOLE SULFONAMIDE DERIVATIVES” (F. Hoffmann-La Roche AG, priority 2022, dated 2024).
